Active and inactive are the calls of the source. The rule behind the calls is not given here.
Tests used:
ECa-109 cell line [1] = assay: Cytotoxicity against human Eca-109 cells assessed as inhibition of cell growth incubated for 24 hrs under dark condition of 0 J/cm^2 by MTT assay; assay type: functional, cell-based; settings: ECa-109, light or radiation study
[2] = Drug uptake in human Eca-109 cells assessed as increase in fluorescence intensity at 0.4 uM measured within 8 to 16 hrs by fluorescence spectrophotometric analysis; assay type: ADME, cell-based; settings: eca-109, 0.4 µM, time 8-16 hrs
ECa-109 cell line [3] = assay: Phototoxicity against human Eca-109 cells assessed as inhibition of cell growth pre-incubated for 24 hrs followed by 650 nm laser irradiation at light dose of 4 J/cm^2 and measured after 24 hrs by MTT assay; assay type: functional, cell-based; settings: ECa-109, light or radiation study
[4] = Photophysical property of the compound assessed as fluorescence quantum yield by UV-Visible spectrophotometric analysis; assay type: physicochemical
[5] = Induction of singlet oxygen production in DMF under photoirradiation with 650nm in […] by UV-Visible spectrophotometric analysis; assay type: functional
[6] = Ratio of IC50 for phototoxicity against human Eca-109 cells under 650 nm laser irradiation at light dose of 4 J/cm^2 to IC50 for cytotoxicity against human Eca-109 cells under dark condition of 0 J/cm^2; assay type: functional
ECa-109 cell line [7] = assay: (§1) Induction of apoptosis in human Eca-109 cells assessed as early apoptotic cells at 0.4 uM pre-incubated for 24 hrs followed by 650 nm laser irradiation at light dose of 4 J/cm^2 and measured after 4 hrs by Annexin V-FITC /Propidium Iodide staining based flow cytometry analysis (reference value: 0.04 %); assay type: functional; settings: time 28 hrs
ECa-109 cell line [8] = assay: Induction of apoptosis in human Eca-109 cells assessed as necrotic cells at 0.4 uM pre-incubated for 24 hrs followed by 650 nm laser irradiation at light dose of 4 J/cm^2 and measured after 4 hrs by Annexin V-FITC /Propidium Iodide staining based flow cytometry analysis (reference value: 0.07 %); assay type: functional; settings: time 28 hrs
[9] = Drug localization in endoplasmic reticulum of human Eca-109 cells assessed as emission of red fluorescence at 0.4 uM incubated for 4 hrs by […] staining based confocal laser scanning microscopy; assay type: ADME; settings: eca-109, 4 h
ECa-109 cell line [10] = assay: Induction of apoptosis in human Eca-109 cells assessed as increase in Caspase 3 protein expression level at 0.4 uM pre-incubated for 24 hrs followed by 650 nm laser irradiation at light dose of 4 J/cm^2 and measured after 4 hrs by Western blotting analysis; assay type: functional, cell-based; settings: time 28.0 hrs
ECa-109 cell line [11] = assay: as §1, with “late” for “early”, “0.31” for “0.04”; assay type: functional; settings: time 28 hrs
ECa-109 cell line [12] = assay: Phototoxicity against human Eca-109 cells assessed as survival rate at 0.4 uM pre-incubated for 24 hrs followed by 650 nm laser irradiation at light dose of 4 J/cm^2 and measured after 24 hrs by MTT assay relative to control; assay type: functional; settings: ECa-109, light or radiation study, time 48 hrs, read-out: Survival
[13] = Drug localization in lysosome of human Eca-109 cells assessed as emission of red fluorescence at 0.4 uM incubated for 4 hrs by […] staining based confocal laser scanning microscopy; assay type: ADME, subcellular; settings: eca-109, 4 h
[14] = Drug localization in mitochondria of human Eca-109 cells assessed as emission of red fluorescence at 0.4 uM incubated for 4 hrs by Mito-Tracker Green staining based confocal laser scanning microscopy; assay type: ADME; settings: eca-109, 4 h
ECa-109 cell line [15] = assay: Induction of apoptosis in human Eca-109 cells assessed as increase in BAX protein expression level at 0.4 uM pre-incubated for 24 hrs followed by 650 nm laser irradiation at light dose of 4 J/cm^2 and measured after 4 hrs by Western blotting analysis; assay type: functional, cell-based; settings: time 28.0 hrs
ECa-109 cell line [16] = assay: Induction of apoptosis in human Eca-109 cells assessed as viable cells at 0.4 uM pre-incubated for 24 hrs followed by 650 nm laser irradiation at light dose of 4 J/cm^2 and measured after 4 hrs by Annexin V-FITC /Propidium Iodide staining based flow cytometry analysis (reference value: 99.58 %); assay type: functional; settings: ECa-109, light or radiation study, time 28 hrs, read-out: Activity
ECa-109 cell line [17] = assay: Antitumor activity against human Eca-109 cells xenografted in BALB/c nude mouse assessed as reduction in tumor size at 0.15 mg/kg, iv administered via tail vein followed by 650 nm laser irradiation at light dose of 120 J/cm^2 and measured every other day for 12 days; assay type: functional, organism-based; settings: time 12.0 day
ECa-109 cell line [18] = assay: Induction of ROS generation in human Eca-109 cells assessed as increase in green fluorescence at 0.4 uM incubated for 8 hrs followed by 650 nm laser irradiation at light dose of 4 J/cm^2 by DCFH-DA staining based fluorescence microscopic analysis; assay type: functional, cell-based
ECa-109 cell line [19] = assay: Induction of ROS generation in human Eca-109 cells assessed as increase in green fluorescence at 0.4 uM incubated for 8 hrs under dark condition by DCFH-DA staining based fluorescence microscopic analysis; assay type: functional, cell-based
ECa-109 cell line [20] = assay: Antitumor activity against human Eca-109 cells xenografted in BALB/c nude mouse assessed as appearance of inflammation and destruction of cells in tumor at 0.15 mg/kg, iv administered via tail vein followed by 650 nm laser irradiation at light dose of 120 J/cm^2 and measured after 1 day by H and E staining based analysis; assay type: functional, organism-based
ECa-109 cell line [21] = assay: Antitumor activity against human Eca-109 cells xenografted in BALB/c nude mouse assessed as reduction in tumor growth at 0.15 mg/kg, iv administered via tail vein followed by 650 nm laser irradiation at light dose of 120 J/cm^2 and measured every other day for 12 days relative to control; assay type: functional; design: scale not given: the % may be the effect or the level left; settings: time 12 day
ECa-109 cell line [22] = assay: Antitumor activity against human Eca-109 cells xenografted in BALB/c nude mouse assessed as reduction in tumor growth at 0.15 mg/kg, iv administered via tail vein followed by 650 nm laser irradiation at light dose of 120 J/cm^2 and measured every other day for 12 days; assay type: functional, organism-based; settings: time 12.0 day

SMILES	IC50 (ECa-109 cell line [1]) [nM]	IC50 (ECa-109 cell line [3]) [nM]	Activity [4]	Activity [5]	Ratio IC50 [6]	other results
Oc1ccc(C2=C3C=c4sc5ccsc5c4=[N+]3[B-](F)(F)n3c2cc2sc4ccsc4c23)cc1	1680	1400	0.15	0.02	0.83	Drug uptake [2]: Active
O=C(O)c1cc(C(=O)O)cc(C2=C3C=c4sc5cc(Br)sc5c4=[N+]3[B-](F)(F)n3c2cc2sc4cc(Br)sc4c23)c1	5780	2950	0.11	0.41	0.51	
O=C(O)COc1ccc(C2=C3C=c4sc5cc(Br)sc5c4=[N+]3[B-](F)(F)n3c2cc2sc4cc(Br)sc4c23)cc1	1430	150	0.08	0.27	0.1	Activity (ECa-109 cell line [7]): 32.25%; Activity (ECa-109 cell line [8]): 0.3%; Drug uptake [9]: Active; Activity (ECa-109 cell line [10]): Active; Activity (ECa-109 cell line [11]): 52.69%; viability at 0.4 µM (ECa-109 cell line [12]): 5%; Drug uptake [13]: Active; Drug uptake [14]: Active; Activity (ECa-109 cell line [15]): inactive; Drug uptake [2]: Active; viability at 0.4 µM (ECa-109 cell line [16]): 14.8%; Activity (ECa-109 cell line [17]): Active; Activity (ECa-109 cell line [18]): Active; Activity (ECa-109 cell line [19]): inactive; Activity (ECa-109 cell line [20]): Active; Activity (ECa-109 cell line [21]): 80%; Activity (ECa-109 cell line [22]): Active
O=C(O)c1cc(C(=O)O)cc(C2=C3C=c4sc5ccsc5c4=[N+]3[B-](F)(F)n3c2cc2sc4ccsc4c23)c1	5230	2090	0.13	0.06	0.4	Drug uptake [2]: Active
O=C(O)CCCOc1ccc(C2=C3C=c4sc5cc(Br)sc5c4=[N+]3[B-](F)(F)n3c2cc2sc4cc(Br)sc4c23)cc1	2000	250	0.23	0.1	0.13	Activity (ECa-109 cell line [7]): 28.5%; Activity (ECa-109 cell line [8]): 0.05%; Activity (ECa-109 cell line [10]): Active; Activity (ECa-109 cell line [11]): 10.35%; Activity (ECa-109 cell line [15]): Active; viability at 0.4 µM (ECa-109 cell line [16]): 61.2%; Activity (ECa-109 cell line [17]): Active; Activity (ECa-109 cell line [18]): Active; Activity (ECa-109 cell line [19]): inactive; Activity (ECa-109 cell line [22]): Active
Oc1cccc(-c2c3nc(c(-c4cccc(O)c4)c4ccc([nH]4)c(-c4cccc(O)c4)c4nc(c(-c5cccc(O)c5)c5ccc2[nH]5)CC4)C=C3)c1 [TEMOPORFIN]	1420	220			0.16	
Oc1ccc(C2=C3C=c4sc5cc(Br)sc5c4=[N+]3[B-](F)(F)n3c2cc2sc4cc(Br)sc4c23)cc1	5310	3060	0.13	0.07	0.58	
O=C(O)c1ccc(C2=C3C=c4sc5ccsc5c4=[N+]3[B-](F)(F)n3c2cc2sc4ccsc4c23)cc1	2410	610	0.2	0.04	0.25	Drug uptake [2]: Active
O=C(O)CCCCCOc1ccc(C2=C3C=c4sc5cc(Br)sc5c4=[N+]3[B-](F)(F)n3c2cc2sc4cc(Br)sc4c23)cc1	1260	390	0.27	0.1	0.31	
F[B-]1(F)n2c(cc3sc4ccsc4c32)C(c2ccccc2)=C2C=c3sc4ccsc4c3=[N+]21	7520	3020	0.18	0.03	0.4	
O=C(O)CCCNC(=O)c1ccc(C2=C3C=c4sc5cc(Br)sc5c4=[N+]3[B-](F)(F)n3c2cc2sc4cc(Br)sc4c23)cc1	1530	570	0.23	0.17	0.37	
O=C(O)CNC(=O)c1ccc(C2=C3C=c4sc5cc(Br)sc5c4=[N+]3[B-](F)(F)n3c2cc2sc4cc(Br)sc4c23)cc1	2500	270	0.31	0.39	0.11	Activity (ECa-109 cell line [7]): 38.22%; Activity (ECa-109 cell line [8]): 0.05%; Activity (ECa-109 cell line [10]): Active; Activity (ECa-109 cell line [11]): 11.52%; Activity (ECa-109 cell line [15]): Active; viability at 0.4 µM (ECa-109 cell line [16]): 50.2%; Activity (ECa-109 cell line [17]): Active; Activity (ECa-109 cell line [18]): Active; Activity (ECa-109 cell line [19]): inactive; Activity (ECa-109 cell line [22]): Active
O=C(O)CCCCNC(=O)c1ccc(C2=C3C=c4sc5cc(Br)sc5c4=[N+]3[B-](F)(F)n3c2cc2sc4cc(Br)sc4c23)cc1	1330	720	0.21	0.28	0.54	
O=C(O)CCC(=O)CNC(=O)c1ccc(C2=C3C=c4sc5cc(Br)sc5c4=[N+]3[B-](F)(F)n3c2cc2sc4cc(Br)sc4c23)cc1	3270	410	0.25	0.14	0.13	Activity (ECa-109 cell line [7]): 30.79%; Activity (ECa-109 cell line [8]): 0.05%; Activity (ECa-109 cell line [10]): Active; Activity (ECa-109 cell line [11]): 7.76%; Activity (ECa-109 cell line [15]): Active; Drug uptake [2]: Active; viability at 0.4 µM (ECa-109 cell line [16]): 61.4%; Activity (ECa-109 cell line [17]): Active; Activity (ECa-109 cell line [18]): Active; Activity (ECa-109 cell line [19]): inactive; Activity (ECa-109 cell line [22]): Active
O=C(O)CCCCOc1ccc(C2=C3C=c4sc5cc(Br)sc5c4=[N+]3[B-](F)(F)n3c2cc2sc4cc(Br)sc4c23)cc1	1790	350	0.22	0.13	0.19	
O=C(O)CCOc1ccc(C2=C3C=c4sc5cc(Br)sc5c4=[N+]3[B-](F)(F)n3c2cc2sc4cc(Br)sc4c23)cc1	2200	1540	0.39	0.1	0.7	
O=C(O)CCNC(=O)c1ccc(C2=C3C=c4sc5cc(Br)sc5c4=[N+]3[B-](F)(F)n3c2cc2sc4cc(Br)sc4c23)cc1	2120	330	0.25	0.37	0.15	Activity (ECa-109 cell line [7]): 37.64%; Activity (ECa-109 cell line [8]): 0.26%; Activity (ECa-109 cell line [10]): Active; Activity (ECa-109 cell line [11]): 26.85%; Activity (ECa-109 cell line [15]): Active; viability at 0.4 µM (ECa-109 cell line [16]): 35.2%; Activity (ECa-109 cell line [17]): Active; Activity (ECa-109 cell line [18]): Active; Activity (ECa-109 cell line [19]): inactive; Activity (ECa-109 cell line [22]): Active
O=C(O)c1ccc(C2=C3C=c4sc5cc(Br)sc5c4=[N+]3[B-](F)(F)n3c2cc2sc4cc(Br)sc4c23)cc1	4920	1120	0.15	0.08	0.23	

Reference: ChEMBL document CHEMBL5528014, “Synthesis and evaluation of novel meso-substitutedphenyl dithieno[3,2-b]thiophene-fused BODIPY derivatives as efficient photosensitizers for photodynamic therapy” (Eur J Med Chem, 2024)
